In PMC10082216 (Nature Communications, 2023):
Where two headings read alike, the source gives them in different places.

Assay: TD-6450 phase I clinical study (SAD/MAD): pharmacokinetics
Format: in vivo, human
Conditions: male, human
Method: Primary and secondary outcomes were pre-defined as follows: Safety and tolerability as a primary outcome, pharmacokinetics as a secondary outcome. Safety and tolerability were evaluated using standard measures, including adverse event (AE) monitoring, clinical laboratory tests (hematology, serum chemistry, coagulation, and urinalysis), vital signs, physical examinations, and 12-lead electrocardiograms (ECGs). […]
This study was conducted in two parts, Part A (SAD) and Part B (MAD). For the Part A, the age of enrolled subjects ranged from 20 to 60 years, with a mean age range of 32.1 to 46.2 years. Most subjects were male (73 total subjects) and most were white (55 subjects) or black (22 subjects). For Part B of the study, ages ranged from 23 to 60 years with a similar mean age across treatment groups. Most subjects were male (25 total subjects) and all were either white (18 subjects) or black (12 subjects). For each part of the study, the mean body mass index (BMI) and creatinine clearance were similar across treatment groups. […] Part A: Healthy subjects were sequentially enrolled and randomly assigned to each dose cohort (up to 10 dose-ascending cohorts were planned, including a fed arm in the food effect cohort) to receive either a single dose of TD-6450 or placebo. For each dose cohort, 8 subjects were randomized in a 3:1 ratio (6 subjects received TD-6450 and 2 subjects received placebo). The starting dose of TD-6450 was 0.5 mg with a planned maximum dose of 1000 mg. Upon review of the 500-mg cohort PK data, the decision was made to not escalate to the 1000-mg cohort because of exposure saturation at ≥ 500 mg. The following doses were administered: 0.5 mg, 1.5 mg, 5 mg, 15 mg, 30 mg, 60 mg, 120 mg, 240 mg, and 500 mg. Part B: Healthy subjects were sequentially enrolled in 3 ascending dose cohorts (TD-6450 60 mg, 120 mg, and 240 mg) and randomly assigned to receive either TD-6450 or placebo as once daily doses for 14 days. For each dose cohort, 10 subjects were randomized in a 4:1 ratio (8 subjects received TD-6450 and 2 subjects received placebo). Blinded safety, tolerability, and available PK data after each dose cohort were reviewed by the Safety Data Review Committee (SDRC) before escalation to the next dosing cohort for both part A and B. Subjects of the clinical study were randomly assigned to each cohort. Randomizations codes were assigned to the subjects. All study subjects, study investigators, and the sponsor’s staff involved in the conduct of the study were blinded to treatment assignment. The only personnel who had access to the randomization code before database lock were: The pharmacist or pharmacy staff member who prepared drug or placebo capsules for administration to the subject according to the randomization code and the bioanalytical contract laboratory that analyzed the PK samples (plasma and urine).

With `CNC(=O)N1C[C@@H](C)N(c2ccc(C(=O)Nc3ccc(-c4ccc(-c5c[nH]c([C@@H]6CCCN6C(=O)[C@@H](NC(=O)OC)C(C)C)n5)cc4)c(OC(F)(F)F)c3)cn2)C[C@@H]1C` [TD-6450] the TD-6450 concentration (in vivo, 120 h) was 29.30 ng/mL, the concentration at 15 min (in vivo, TD-6450 concentration) was 0 ng/mL and the concentration at 2 h (in vivo, TD-6450 concentration) was 116 ng/mL. It also gave a concentration at 3 h (in vivo, TD-6450 concentration) of 156 ng/mL, a concentration at 4 h (in vivo, TD-6450 concentration) of 159 ng/mL and a concentration at 6 h (in vivo, TD-6450 concentration) of 165 ng/mL. The concentration at 12 h (in vivo, TD-6450 concentration) was 108 ng/mL, the concentration at 24 h (in vivo, TD-6450 concentration) was 85.6 ng/mL and the concentration at 48 h (in vivo, TD-6450 concentration) was 60 ng/mL. It also gave a concentration at 72 h (in vivo, TD-6450 concentration) of 42.6 ng/mL, a concentration at 96 h (in vivo, TD-6450 concentration) of 27.1 ng/mL and a concentration at 120 h (in vivo, TD-6450 concentration) of 19.3 ng/mL. The concentration at 144 h (in vivo, TD-6450 concentration) was 15.1 ng/mL, the concentration at 168 h (in vivo, TD-6450 concentration) was 12.2 ng/mL and the concentration at 312 h (in vivo, TD-6450 concentration) was 2.12 ng/mL. It also gave a concentration at 1 h (plasma, oral, 0.5 mg, Male subjects, SAD arm NCT02022306, Dose 0.50, 1 Hour, read-out: Concentration) of 0 ng/mL, a concentration at 2 h (plasma, oral, 0.5 mg, Male subjects, SAD arm NCT02022306, Dose 0.50, 2 Hours, read-out: Concentration) of 0 ng/mL and a concentration at 3 h (plasma, oral, 0.5 mg, Male subjects, SAD arm NCT02022306, Dose 0.50, 3 Hours, read-out: Concentration) of 0 ng/mL. The concentration at 15 min (plasma, oral, 0.5 mg, Male subjects, SAD arm NCT02022306, Dose 0.50, 15 Minutes, read-out: Concentration) was 0 ng/mL, the concentration at 24 h (plasma, oral, 0.5 mg, Male subjects, SAD arm NCT02022306, Dose 0.50, 24 Hours, read-out: Concentration) was 0 ng/mL and the concentration at 30 min (plasma, oral, 0.5 mg, Male subjects, SAD arm NCT02022306, Dose 0.50, 30 Minutes, read-out: Concentration) was 0 ng/mL. It also gave a concentration at 72 h (plasma, oral, 0.5 mg, Male subjects, SAD arm NCT02022306, Dose 0.50, 72 Hours, read-out: Concentration) of 0 ng/mL, a concentration at 96 h (plasma, oral, 0.5 mg, Male subjects, SAD arm NCT02022306, Dose 0.50, 96 Hours, read-out: Concentration) of 0 ng/mL and a concentration at 120 h (plasma, oral, 0.5 mg, Male subjects, SAD arm NCT02022306, Dose 0.50, 120 Hours, read-out: Concentration) of 0 ng/mL. The concentration at 144 h (plasma, oral, 0.5 mg, Male subjects, SAD arm NCT02022306, Dose 0.50, 144 Hours, read-out: Concentration) was 0 ng/mL, the concentration at 168 h (plasma, oral, 0.5 mg, Male subjects, SAD arm NCT02022306, Dose 0.50, 168 Hours, read-out: Concentration) was 0 ng/mL and the concentration at 15 min (plasma, oral, 1.5 mg, Male subjects, SAD arm NCT02022306, Dose 1.50, 15 Minutes, read-out: Concentration) was 0 ng/mL. It also gave a concentration at 30 min (plasma, oral, 1.5 mg, Male subjects, SAD arm NCT02022306, Dose 1.50, 30 Minutes, read-out: Concentration) of 0 ng/mL, a concentration at 15 min (plasma, oral, 5 mg, Male subjects, SAD arm NCT02022306, Dose 5.00, 15 Minutes, read-out: Concentration) of 0 ng/mL and a concentration at 15 min (plasma, oral, 15 mg, Male subjects, SAD arm NCT02022306, Dose 15.00, 15 Minutes, read-out: Concentration) of 0 ng/mL. The concentration at 1 h (plasma, oral, 30 mg, Male subjects, SAD arm NCT02022306, Dose 30.00, 1 Hour, read-out: Concentration (ng/ml)) was 0.68 ng/mL, the concentration at 2 h (plasma, oral, 30 mg, Male subjects, SAD arm NCT02022306, Dose 30.00, 2 Hours, read-out: Concentration) was 9.36 ng/mL and the concentration at 3 h (plasma, oral, 30 mg, Male subjects, SAD arm NCT02022306, Dose 30.00, 3 Hours, read-out: Concentration) was 15.6 ng/mL. It also gave a concentration at 3 h (plasma, oral, 30 mg, Male subjects, SAD arm NCT02022306, Dose 30.00, 3 Hours, read-out: Concentration (ng/ml)) of 20.9 ng/mL, a concentration at 4 h (plasma, oral, 30 mg, Male subjects, SAD arm NCT02022306, Dose 30.00, 4 Hours, read-out: Concentration) of 18.8 ng/mL and a concentration at 4 h (plasma, oral, 30 mg, Male subjects, SAD arm NCT02022306, Dose 30.00, 4 Hours, read-out: Concentration (ng/ml)) of 17.9 ng/mL. For the same compound, the concentration at 6 h (plasma, oral, 30 mg, Male subjects, SAD arm NCT02022306, Dose 30.00, 6 Hours, read-out: Concentration) was 22.6 ng/mL, the concentration at 8 h (plasma, oral, 30 mg, Male subjects, SAD arm NCT02022306, Dose 30.00, 8 Hours, read-out: Concentration) was 26.3 ng/mL and the concentration at 12 h (plasma, oral, 30 mg, Male subjects, SAD arm NCT02022306, Dose 30.00, 12 Hours, read-out: Concentration) was 18.7 ng/mL. For the same compound, the concentration at 15 min (plasma, oral, 30 mg, Male subjects, SAD arm NCT02022306, Dose 30.00, 15 Minutes, read-out: Concentration) was 0 ng/mL, the concentration at 15 min (plasma, oral, 30 mg, Male subjects, SAD arm NCT02022306, Dose 30.00, 15 Minutes, read-out: Concentration (ng/ml)) was 0 ng/mL and the concentration at 24 h (plasma, oral, 30 mg, Male subjects, SAD arm NCT02022306, Dose 30.00, 24 Hours, read-out: Concentration) was 14.3 ng/mL. The concentration at 30 min (plasma, oral, 30 mg, Male subjects, SAD arm NCT02022306, Dose 30.00, 30 Minutes, read-out: Concentration (ng/ml)) was 0 ng/mL, the concentration at 48 h (plasma, oral, 30 mg, Male subjects, SAD arm NCT02022306, Dose 30.00, 48 Hours, read-out: Concentration) was 9.12 ng/mL and the concentration at 72 h (plasma, oral, 30 mg, Male subjects, SAD arm NCT02022306, Dose 30.00, 72 Hours, read-out: Concentration) was 6.82 ng/mL. It also gave a concentration at 72 h (plasma, oral, 30 mg, Male subjects, SAD arm NCT02022306, Dose 30.00, 72 Hours, read-out: Concentration (ng/ml)) of 5.73 ng/mL, a concentration at 96 h (plasma, oral, 30 mg, Male subjects, SAD arm NCT02022306, Dose 30.00, 96 Hours, read-out: Concentration) of 5.25 ng/mL and a concentration at 96 h (plasma, oral, 30 mg, Male subjects, SAD arm NCT02022306, Dose 30.00, 96 Hours, read-out: Concentration (ng/ml)) of 4.83 ng/mL. It also gave a concentration at 120 h (plasma, oral, 30 mg, Male subjects, SAD arm NCT02022306, Dose 30.00, 120 Hours, read-out: Concentration) of 4.26 ng/mL, a concentration at 120 h (plasma, oral, 30 mg, Male subjects, SAD arm NCT02022306, Dose 30.00, 120 Hours, read-out: Concentration (ng/ml)) of 3.52 ng/mL and a concentration at 144 h (plasma, oral, 30 mg, Male subjects, SAD arm NCT02022306, Dose 30.00, 144 Hours, read-out: Concentration) of 3.26 ng/mL. For the same compound, the concentration at 144 h (plasma, oral, 30 mg, Male subjects, SAD arm NCT02022306, Dose 30.00, 144 Hours, read-out: Concentration (ng/ml)) was 3.18 ng/mL, the concentration at 168 h (plasma, oral, 30 mg, Male subjects, SAD arm NCT02022306, Dose 30.00, 168 Hours, read-out: Concentration) was 2.33 ng/mL and the concentration at 168 h (plasma, oral, 30 mg, Male subjects, SAD arm NCT02022306, Dose 30.00, 168 Hours, read-out: Concentration (ng/ml)) was 2.29 ng/mL. The concentration at 8 h (plasma, oral, 60 mg, Male subjects, SAD arm NCT02022306, Dose 60.00, 8 Hours, read-out: Concentration (ng/ml)) was 110 ng/mL, the concentration at 15 min (plasma, oral, 60 mg, Male subjects, SAD arm NCT02022306, Dose 60.00, 15 Minutes, read-out: Concentration (ng/ml)) was 0 ng/mL and the concentration at 15 min (plasma, oral, 120 mg, Male subjects, SAD arm NCT02022306, Dose 120.00, 15 Minutes, read-out: Concentration (ng/ml)) was 0 ng/mL. The concentration at 15 min (plasma, oral, 240 mg, Male subjects, SAD arm NCT02022306, Dose 240.00, 15 Minutes, read-out: Concentration (ng/ml)) was 0 ng/mL, the concentration at 15 min (plasma, oral, 500 mg, Male subjects, SAD arm NCT02022306, Dose 500.00, 15 Minutes, read-out: Concentration (ng/ml)) was 0 ng/mL and the concentration at 30 min (plasma, oral, 500 mg, Male subjects, SAD arm NCT02022306, Dose 500.00, 30 Minutes, read-out: Concentration (ng/ml)) was 2.85 ng/mL.
